Measurements as given in paper PMC9465256, “Discovering monoacylglycerol lipase inhibitors by a combination of fluorogenic substrate assay and activity-based protein profiling” (Frontiers in Pharmacology, 2022).

Molecular target: T1, human ABHD6 (Homo sapiens, UniProt Q9BV23)
T1 construct: expressed in transfected cells; host or cells: HEK293T (transient transfection; membrane fraction)
T1 sequence (Q9BV23 1-337): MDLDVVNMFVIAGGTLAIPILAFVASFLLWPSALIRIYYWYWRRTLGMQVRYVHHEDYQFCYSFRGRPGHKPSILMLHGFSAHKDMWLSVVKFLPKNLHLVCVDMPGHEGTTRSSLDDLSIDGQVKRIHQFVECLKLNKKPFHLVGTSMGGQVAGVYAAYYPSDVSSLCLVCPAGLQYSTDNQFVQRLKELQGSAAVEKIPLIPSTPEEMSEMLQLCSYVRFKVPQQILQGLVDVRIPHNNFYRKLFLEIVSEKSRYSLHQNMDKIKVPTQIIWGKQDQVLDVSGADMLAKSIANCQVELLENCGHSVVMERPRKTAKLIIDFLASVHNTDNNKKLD
Assay: ABHD6 activity assay (AA-HNA fluorogenic substrate)
Assay type: biochemical
Conditions: 100 µM, AA-HNA substrate assay, Supplementary Table 2; read-out: ABHD6 Inhibition (%)
Experimental: (§1) HEK293T cells were cultured at 37°C under 5% CO2 in a DMEM medium with stable glutamine and phenolred, containing 10% fetal bovine serum (FBS, Gibco), penicillin, and streptomycin. The cells were passaged every 2–3 days by resuspension in the medium at ∼90% confluence. The membranes used in this study were prepared from transiently transfected HEK293T cells. Briefly, 1 day prior to transfection, ∼10^7 cells were seeded in 15 cm plates, and then the cells were transfected by the addition of a mixture of polyethyleneimine and plasmid DNA (3:1, 60, and 20 µg) in 2 ml of medium (without serum). Of note, the empty pcDNA3.1 vector was used in the Mock-control. After 24 h, the medium was removed and the cells were refreshed with fresh medium. After 72 h, the cells were harvested by suspending in 20 ml of medium, and the supernatant was removed by centrifugation for 10 min at 1,000 rpm. The cell pellet was flash frozen in liquid nitrogen and stored at −80°C until use. Subsequently, the cell pellets were suspended in lysis buffer (30 mM Tirs, pH 7.5, 1 mM MgCl2, 25 U/ml Benzonase), which was homogenized by sonication (3 × 10 bursts) and incubated for 30 min on ice. The membrane fractions overexpressing MAGL/ABHD6/ABHD12 were separated by ultracentrifuge (100,000 g, 30 min, 4 C). The protein concentration was determined with a Qubit protein assay (Invitrogen). The protein samples were quickly frozen in liquid nitrogen and stored at −80 C until use.
The MAGL activity assay is based on the hydrolysis of 2-arachidonoylglycerol-based fluorogenic substrate by MAGL-overexpressing membrane preparations from transiently transfected HEK293T cells. In brief, the reactions were performed in HEPES buffer (40 mM HEPES, pH 7.5, 0.1 mg/ml BSA) in black, flat bottom 96-well plates. The final protein concentration of membrane fractions from overexpressing human MAGL HEK293T cells was 12.5 μg/ml 5 µl of inhibitors were added from×40 concentrated DMSO stocks in the 96-well plate containing 145 µl assay buffer, followed by the addition of 40 µl of the protein (12.5 μg/ml). After the incubation of the inhibitor-protein complex for 30 min, 10 µl of the fluorogenic substrate (AA-HNA, 200 µM) was added and fluorescence was measured in 1 min intervals for 30 min on a plate reader (BioTek). Final assay concentrations: 12.5 μg/ml MAGL, […], and […] in the total volume of 200 µl. All the measurements were performed in N = 2, n = 2 for inhibitors and N = 2, n = 4 for controls with Z′ value ≥0.6. The slope is determined in 5–15 min for all the experiments.
The ABHD6 activity assay is based on the same principle as the MAGL activity assay described earlier, but with human ABHD6 overexpressing membrane preparations at a final protein concentration of 50 μg/ml and 200 µM AA-HNA. Other conditions are the same as those of the MAGL activity assay.

Row | SMILES | activity at 100 µM [%]
1 | c1coc(CNc2ncnc3[nH]cnc23)c1 [compound 44, Kinetin] | 98.5
2 | CC1(C)O[C@H]2CC(=O)OC[C@]23[C@H]2CC[C@@]4(C)[C@H](c5ccoc5)OC(=O)[C@H]5O[C@]54[C@]2(C)C(=O)C[C@@H]13 [compound 46, Limonin] | 103
3 | O=[N+]([O-])c1ncc[nH]1 [compound 13, Azomycin] | 112
4 | CC1(C)[C@@H](O)CC[C@]2(C)[C@H]3C(=O)C=C4[C@@H]5C[C@@](C)(C(=O)O)CC[C@]5(C)CC[C@@]4(C)[C@]3(C)CC[C@@H]12 [compound 30, Enoxolone] | 92
5 | N#C[C@H](O[C@@H]1O[C@H](CO[C@@H]2O[C@H](CO)[C@@H](O)[C@H](O)[C@H]2O)[C@@H](O)[C@H](O)[C@H]1O)c1ccccc1 [compound 7, Amygdalin] | 90.2
6 | O=c1c2ccccc2nc2n1CCc1c-2[nH]c2ccccc12 [compound 71, Rutaecarpine] | 111

Same assay, conditions: read-out: ABHD6 Inhibition (%)

Row | SMILES | percent inhibition of ABHD6 at 100 µM [%]
7 | CC(C)(C)[C@]1(O)CC2OC(=O)CC23C(=O)OC2OC(=O)[C@H](O)C231 (stereo partly drawn) [compound 18, Bilobalide] | 99.5
8 | O=c1cccc2n1C[C@@H]1CNC[C@H]2C1 [compound 25, Cytisine] | 104

Molecular target: T2, human ABHD12 (Homo sapiens, UniProt Q8N2K0)
T2 construct: expressed in transfected cells; host or cells: HEK293T (transient transfection; membrane fraction)
T2 sequence (Q8N2K0 1-398): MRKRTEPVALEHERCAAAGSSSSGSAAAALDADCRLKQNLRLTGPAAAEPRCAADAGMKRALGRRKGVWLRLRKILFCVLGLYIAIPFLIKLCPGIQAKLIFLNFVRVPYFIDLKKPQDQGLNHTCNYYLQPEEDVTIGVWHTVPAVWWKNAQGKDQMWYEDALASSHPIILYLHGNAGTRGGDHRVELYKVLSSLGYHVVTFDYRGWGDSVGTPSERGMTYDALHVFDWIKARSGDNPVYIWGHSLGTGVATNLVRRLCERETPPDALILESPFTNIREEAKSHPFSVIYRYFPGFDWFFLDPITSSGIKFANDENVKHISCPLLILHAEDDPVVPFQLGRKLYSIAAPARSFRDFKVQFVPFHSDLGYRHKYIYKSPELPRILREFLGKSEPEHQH
Assay: ABHD12 activity by competitive ABPP with FP-TAMRA
Assay type: biochemical
Conditions: 100 µM compound; competitive ABPP with probe FP-TAMRA (250 nM); read-out: ABHD12 Inhibition (%)
Experimental: as §1
The ABHD12 activity assay is based on competitive activity-based protein profiling (ABPP) with human ABHD12 overexpressing membrane fractions. Briefly, the membrane proteome (1 mg/ml, 20 µl) was incubated at room temperature with 0.5 µl DMSO (vehicle) or inhibitor for 30 min. Subsequently, the samples were treated with the activity-based probe FP-TAMRA (250 nM, final concentration) for 20 min. The reactions were then quenched by 10 µl sample buffer (×4) (final concentrations: 60 mM Tris, pH 6.8, 2% (w/v) SDS, 10% (v/v) glycerol, 5% (v/v) β-mercaptoethanol, 0.01% (v/v) bromophenol blue). The samples were directly loaded and resolved on SDS-PAGE gel (10% acrylamide), which were then scanned using a ChemiDoc MP system (Cy3 settings, BioRad).

Row | SMILES | activity at 100 µM [%]
9 | c1coc(CNc2ncnc3[nH]cnc23)c1 [compound 44, Kinetin] | 78.2
10 | CC1(C)O[C@H]2CC(=O)OC[C@]23[C@H]2CC[C@@]4(C)[C@H](c5ccoc5)OC(=O)[C@H]5O[C@]54[C@]2(C)C(=O)C[C@@H]13 [compound 46, Limonin] | 83.1
11 | O=[N+]([O-])c1ncc[nH]1 [compound 13, Azomycin] | 87.7
12 | CC1(C)[C@@H](O)CC[C@]2(C)[C@H]3C(=O)C=C4[C@@H]5C[C@@](C)(C(=O)O)CC[C@]5(C)CC[C@@]4(C)[C@]3(C)CC[C@@H]12 [compound 30, Enoxolone] | 89.1
13 | N#C[C@H](O[C@@H]1O[C@H](CO[C@@H]2O[C@H](CO)[C@@H](O)[C@H](O)[C@H]2O)[C@@H](O)[C@H](O)[C@H]1O)c1ccccc1 [compound 7, Amygdalin] | 69.8
14 | O=c1c2ccccc2nc2n1CCc1c-2[nH]c2ccccc12 [compound 71, Rutaecarpine] | 97

Same assay, conditions: read-out: ABHD12 Inhibition (%)

Row | SMILES | percent inhibition at 100 µM [%]
15 | CC(C)(C)[C@]1(O)CC2OC(=O)CC23C(=O)OC2OC(=O)[C@H](O)C231 (stereo partly drawn) [compound 18, Bilobalide] | 83
16 | O=c1cccc2n1C[C@@H]1CNC[C@H]2C1 [compound 25, Cytisine] | 87.9

Molecular target: T3, human MAGL (Homo sapiens, UniProt Q99685)
T3 construct: expressed in transfected cells; host or cells: HEK293T (transient transfection; membrane fraction)
T3 sequence (Q99685 1-303): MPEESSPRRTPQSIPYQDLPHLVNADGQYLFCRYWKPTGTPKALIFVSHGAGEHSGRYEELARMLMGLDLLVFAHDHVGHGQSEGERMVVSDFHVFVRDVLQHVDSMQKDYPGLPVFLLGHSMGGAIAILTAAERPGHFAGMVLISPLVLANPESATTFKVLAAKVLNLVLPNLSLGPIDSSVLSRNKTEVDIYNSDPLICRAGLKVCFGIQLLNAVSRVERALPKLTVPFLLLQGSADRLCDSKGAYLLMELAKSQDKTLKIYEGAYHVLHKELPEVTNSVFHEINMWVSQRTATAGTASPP
Assay: MAGL activity assay (AA-HNA fluorogenic substrate)
Assay type: biochemical
Conditions: 100 µM, AA-HNA substrate assay, Supplementary Table 1; read-out: MAGL Inhibition (%)
Experimental: as §1
The MAGL activity assay is based on the hydrolysis of 2-arachidonoylglycerol-based fluorogenic substrate by MAGL-overexpressing membrane preparations from transiently transfected HEK293T cells. In brief, the reactions were performed in HEPES buffer (40 mM HEPES, pH 7.5, 0.1 mg/ml BSA) in black, flat bottom 96-well plates. […] After the incubation of the inhibitor-protein complex for 30 min, 10 µl of the fluorogenic substrate (AA-HNA, 200 µM) was added and fluorescence was measured in 1 min intervals for 30 min on a plate reader (BioTek). […] All the measurements were performed in N = 2, n = 2 for inhibitors and N = 2, n = 4 for controls with Z′ value ≥0.6. The slope is determined in 5–15 min for all the experiments.

Row | SMILES | activity at 100 µM [%]
17 | c1coc(CNc2ncnc3[nH]cnc23)c1 [compound 44, Kinetin] | 90.5
18 | CC1(C)O[C@H]2CC(=O)OC[C@]23[C@H]2CC[C@@]4(C)[C@H](c5ccoc5)OC(=O)[C@H]5O[C@]54[C@]2(C)C(=O)C[C@@H]13 [compound 46, Limonin] | 90.6
19 | O=[N+]([O-])c1ncc[nH]1 [compound 13, Azomycin] | 89.9
20 | CC1(C)[C@@H](O)CC[C@]2(C)[C@H]3C(=O)C=C4[C@@H]5C[C@@](C)(C(=O)O)CC[C@]5(C)CC[C@@]4(C)[C@]3(C)CC[C@@H]12 [compound 30, Enoxolone] | 95.9
21 | N#C[C@H](O[C@@H]1O[C@H](CO[C@@H]2O[C@H](CO)[C@@H](O)[C@H](O)[C@H]2O)[C@@H](O)[C@H](O)[C@H]1O)c1ccccc1 [compound 7, Amygdalin] | 75.9
22 | O=c1c2ccccc2nc2n1CCc1c-2[nH]c2ccccc12 [compound 71, Rutaecarpine] | 99.2

Same assay, conditions: read-out: MAGL Inhibition (%)

Row | SMILES | percent inhibition at 100 µM [%]
23 | CC(C)(C)[C@]1(O)CC2OC(=O)CC23C(=O)OC2OC(=O)[C@H](O)C231 (stereo partly drawn) [compound 18, Bilobalide] | 97.8
24 | O=c1cccc2n1C[C@@H]1CNC[C@H]2C1 [compound 25, Cytisine] | 99
